Consider 61 molecules from PubChem BioAssay AID2305 (GlaxoSmithKline (GSK), 2010).

The assay concerns P. falciparum 3D7 growth, pLDH absorbance. The assay is described as follows: P. falciparum 3D7 growth inhibition, dose response, strain 3D7 (AID 2305).

SMILES strings stand for the structures.

As usually defined, the IC50 is the midpoint of a concentration-inhibition curve. Read a high IC50 as weaker potency.

The molecule `COc1ccccc1-c1csc(C(=O)NCC2CCN(Cc3ccc(C(C)C)cc3)C2)c1` (stereo unspecified) displayed a 50% inhibitory concentration (IC50) of 1350 nM.

With `Clc1nc2ccccn2c1C=Cc1ccc2ccccc2n1`, the IC50 was found to be 270 nM.

In turn, `COc1ccc2cc(-c3nc(-c4c(Cl)cccc4Cl)[nH]c3-c3ccnc(NCCCN4CCN(C)CC4)c3)ccc2c1` returned an IC50 of 710 nM.

Regarding `COc1cccc(C(=O)NCc2cccs2)c1Oc1ccccc1`, the half-inhibitory concentration (IC50) was determined as 60 nM.

In turn, `O=C(NC1CCC(CN2CCC(c3c[nH]c4ccccc34)CC2)CC1)c1cn(Cc2ccccc2)c2ccccc12` (stereo unspecified) gave a 50% inhibitory concentration (IC50) of 1130 nM.

In the case of `CCOc1cccc(C(=O)Nc2cccc(CN3CCCN(Cc4cccc(O)c4)CC3)c2)c1`, the IC50 worked out at 1090 nM.

Take `CN1CCCC1CCNC(=O)[C@H](CC1CCCCC1)NC(=O)c1ccc(O)c(-c2ccc(Cl)c(Cl)c2)c1` (stereo partly specified): the concentration for half-maximal inhibition (IC50) is 740 nM.

`Oc1cccc(-c2nc3ccc(C4=N[C@@H]5CCCC[C@H]5N4)cc3[nH]2)c1` had an IC50 of 530 nM.

Molecule `O=C(Nc1cc(Cl)cc(Cl)c1)N[C@H]1CCN(CCCCCNC(=O)[C@@H]2C[C@H]2c2ccc(Cl)c(Cl)c2)C1` yielded an IC50 of 860 nM.

Molecule `Cc1ccccc1CNC(=O)Nc1cccc(-c2csc(N=C(N)N)n2)c1` showed an IC50 of 700 nM.

As to `C=CCNC(=O)CCCN=C(N)N`, the half-inhibitory concentration (IC50) worked out at 720 nM.

`Cc1cccc(-c2nc(Nc3ccncc3)c3ccc([N+](=O)[O-])cc3n2)n1`: the IC50 was 830 nM.

As for `Cc1ccc([N+](=O)[O-])cc1NC(=O)N(CC(O)c1ccccc1)C1CCCCC1` (stereo unspecified), the concentration for half-maximal inhibition (IC50) was found to be 730 nM.

`CC(C)(CNC(=O)C1CCN(CCOc2ccc(F)c(F)c2)CC1)c1nc(-c2ccc(Cl)c(O)c2)c(-c2ccncc2)[nH]1` came in with an IC50 of 320 nM.

For `O=C(NC1CCC(N2CCN(c3cccc(C(F)(F)F)c3)CC2)CC1)c1cc2ccccc2[nH]1` (stereo unspecified), the half-inhibitory concentration (IC50) came to 720 nM.

With `CC(CN(C)C)C(=O)Nc1cccc(-c2ccc(-c3nc4ccccc4[nH]3)s2)c1` (stereo unspecified), the IC50 turned out to be 740 nM.

In the case of `O=C(Nc1ccc(OC2CCN(Cc3ccccc3)C2)c(Cl)c1)c1ccc(F)cc1` (stereo unspecified), the half-inhibitory concentration (IC50) came to 790 nM.

Take `O=C(c1ccc(F)cc1)N1CCOC(CCN2CCC(c3ccccc3)CC2)(c2ccc(Cl)c(Cl)c2)C1` (stereo unspecified): the IC50 was 750 nM.

Molecule `O=C(Nc1ccccc1)Nc1cccc(-c2nn3c(OCC4CCCCN4)cccc3c2-c2ccncc2)c1` (stereo unspecified) had a half-maximal inhibitory concentration (IC50) of 860 nM.

Take `CN(C)CCOc1ccc2c(=O)cc(CCc3cccc(F)c3F)n(CC(=O)N(C)Cc3ccc(-c4ccc(C(F)(F)F)cc4)cc3)c2c1`: the IC50 came out at 1200 nM.

Consider `CC1(C)N=C(NC(=O)c2ccc([N+](=O)[O-])cc2)N=C(N)N1OCc1ccc2ccccc2c1`, for which the IC50 was determined as 10 nM.

`CC(C)(CNCc1ccc(C(F)(F)F)cc1)c1nc(-c2ccc(Cl)c(O)c2)c(-c2ccnc(N)n2)[nH]1` had a half-inhibitory concentration (IC50) of 150 nM.

In turn, `C[C@@H](Oc1cc(-n2cnc3ccc(NC(=O)CCN4CCCCC4)cc32)sc1C(N)=O)c1ccccc1Cl` displayed a half-maximal inhibitory concentration (IC50) of 990 nM.

`O=C(Nc1c(F)cccc1F)c1cccc(-c2nn3ccccc3c2-c2ccnc(Nc3cccc(-c4cnco4)c3)n2)c1` yielded a half-maximal inhibitory concentration (IC50) of 360 nM.

The molecule `CCOC(=O)C1=C(C)NC2=C(C(=O)CCC2)C1c1cn(Cc2ccc(Cl)cc2Cl)nc1-c1ccccc1` (stereo unspecified) displayed an IC50 of 620 nM.

Consider `COc1cc2ccccc2c(CON2C(N)=NC(N)=NC2(C)C)c1OC`, for which the IC50 amounted to 50 nM.

On to `Cc1cc(N)nc2ccc(-c3cccc(CN)c3)cc12`, for which the IC50 is 710 nM.

As for `CCCNCc1ccc(-c2ccc(CN(Cc3cnc(C)cn3)C(=O)/C=C/c3ccccc3C)cc2)nc1`, the IC50 worked out at 920 nM.

For the molecule `CCCCn1c(C)c(C(=O)OCC)c2cc(OC(C)=O)c(Br)cc21`, the IC50 was determined as 630 nM.

`CCCCNCc1ccc(-c2nc(CN(CCCn3ccnc3)C(=O)Nc3ccc(CC)cc3)cs2)cc1` returned an IC50 of 830 nM.

Molecule `COc1cc(C2CCN(CCCCNC(=O)c3ccc(NC(=O)c4cc(C(F)(F)F)cc(C(F)(F)F)c4)cc3)CC2)ccc1OC(C)C` gave an IC50 of 150 nM.

Regarding `Cc1cc(N[C@@H](Cc2ccccc2)C(=O)NCCOc2ccccc2)nc(NCCOc2ccccc2)n1`, the half-inhibitory concentration (IC50) worked out at 1360 nM.

For the molecule `O=C(Nc1cccc(CN2CCN(Cc3ccc(O)cc3)CC2)c1)c1ccc(Cl)c(Cl)c1`, the IC50 was found to be 250 nM.

`Cc1cc(N2CCN(CC3CCN(C)CC3)CC2)nc(Nc2ccc(Cl)cc2)n1` gave an IC50 of 700 nM.

The molecule `Cc1[nH]c(C)c(-c2ccc(OCc3ccc(F)cc3)nc2)c(=O)c1Br` registered an IC50 of 200 nM.

As for `COc1ccc(-c2ccc(NC(=O)c3ccc(F)cc3)cc2)cc1CN1CCCN(C)CC1`, the concentration for half-maximal inhibition (IC50) amounted to 660 nM.

`O=C(/C=C/c1cccc(C(F)(F)F)c1)NCCCCCN1CCN(C(=O)Nc2ccc(Cl)c(Cl)c2)CC1` had an IC50 of 930 nM.

`CC(C)(C)c1ccc(CN2CCC(CNC(=O)c3cc(-c4cccc(F)c4)cs3)C2)cc1` (stereo unspecified) showed a concentration for half-maximal inhibition (IC50) of 900 nM.

Consider `O=C(Nc1ccc(OC2CCN(Cc3ccccc3)CC2)c(Cl)c1)c1cccs1`, for which the 50% inhibitory concentration (IC50) was found to be 310 nM.

`Cc1cccc2[nH]c(-c3ccc(-c4cccc(NC(=O)Nc5ccccc5)c4)cc3)nc12` had a half-maximal inhibitory concentration (IC50) of 720 nM.

As for `CCOc1c(CNCCCCCCNCc2ccc3ccccc3c2OCC)ccc2ccccc12`, the IC50 worked out at 760 nM.

Take `Cc1ccc(-c2nc(NC(=O)Nc3ccc(C(F)(F)F)cc3)sc2C)cc1Cl`: the IC50 is 660 nM.

Take `Cc1noc(-c2ccc3c(c2)CCN(CCC2CCC(NC(=O)/C=C/c4cccc(Cl)c4)CC2)CC3)n1` (stereo unspecified): the IC50 stood at 1000 nM.

With `COC(=O)c1cccc(CNCc2ccc(-c3ccc(-c4nc5c(C)cccc5[nH]4)cc3)cc2)c1`, the IC50 was 280 nM.

`Cn1c(-c2ccccc2)cc2c3c(N)nc(N)nc3ccc21` displayed a 50% inhibitory concentration (IC50) of 890 nM.

Take `CC1CN(c2ccc(NC(=O)c3ccsc3)cc2C(=O)N2CCN(Cc3ccc(C(C)(C)C)cc3)CC2)CC(C)O1` (stereo unspecified): the concentration for half-maximal inhibition (IC50) came out at 870 nM.

`O=C(NC1CC1)c1cnc(N2CCC(c3ccccc3)CC2)c(Cl)c1` gave an IC50 of 850 nM.

Molecule `CCOc1cc(C(=O)Nc2ccccc2N2CCN(S(C)(=O)=O)CC2)cc(OCC)c1OCC` gave an IC50 of 650 nM.

Take `Cc1ccc(Oc2ccc(NC(=O)CNc3ccccc3N3CCCC3=O)cc2)cc1`: the 50% inhibitory concentration (IC50) is 370 nM.

Turning to `O=C(NCc1ccc(Cl)c(Cl)c1)c1ccc(-c2nc3ccc(F)cc3[nH]2)cc1`, the half-inhibitory concentration (IC50) worked out at 1030 nM.

`Cc1ccc(Nc2nc(C)cc(NC3CCCC3)n2)cc1`: the IC50 was found to be 290 nM.

The molecule `CCCNC(=O)C1Cc2cc(OC)c(OC)cc2C2(N1)C(=O)N(Cc1cccc(OC)c1)c1ccccc12` (stereo unspecified) yielded a concentration for half-maximal inhibition (IC50) of 860 nM.

For `C[C@H]1CN(Cc2cccc(-c3cc(CNC(=O)c4cccc(CN5CCN(CCOc6ccccc6)CC5)c4)ccc3F)c2)CCN1`, the IC50 was found to be 1110 nM.

`Nc1nc(N)c2cc(N(Cc3ccccc3)Cc3ccccc3)ccc2n1`: the half-maximal inhibitory concentration (IC50) was 610 nM.

Consider `Cc1ccc(C(=O)N2CCN(Cc3nccs3)CC2)cc1`, for which the IC50 came out at 1010 nM.

`N#Cc1ccc2c(c1)CCN(CCC1CCC(NC(=O)c3ccc(-c4ccccn4)s3)CC1)CC2` (stereo unspecified) came in with an IC50 of 1010 nM.

The molecule `O=C(Nc1ccc(Cl)c(C(F)(F)F)c1)N[C@H]1CCN(CCCCCNC(=O)[C@@H]2C[C@H]2c2ccc(Cl)c(Cl)c2)C1` had a half-maximal inhibitory concentration (IC50) of 1080 nM.

As to `CCc1nc(N)nc(N)c1-c1ccc(F)cc1`, the half-inhibitory concentration (IC50) amounted to 410 nM.

Regarding `O=C(/C=C/c1ccc(C(F)(F)F)cc1)NCCCCCN1CCCN(C(=O)Nc2cccc(Cl)c2)CC1`, the 50% inhibitory concentration (IC50) stood at 990 nM.

For `Cc1ccccc1C1CCN(C2CCC(NC(=O)C3=Cc4cc(Cl)ccc4OC3)CC2)CC1` (stereo unspecified), the IC50 was found to be 890 nM.

In turn, `COc1cccc(C(=O)Nc2ccc(Nc3nc(C)cc(N(C)C)n3)cc2)c1` returned an IC50 of 940 nM.
